Test results as given in patent publication US20250171448A1, “SOLID STATE FORMS OF GUSACITINIB” (TEVA PHARMACEUTICALS INTERNATIONAL GMBH, priority 2022, published 2025).
Blank lines part the entries; values can stand above or below the compound they belong to.

Experiments:
Assay type in all cases: physicochemical
[1] = Stability under tested stress conditions (grinding, pressure of 2 tons, humidity, temperature), summary statements; conditions: strong grinding; for stability under all tested stress conditions: high temperature up to 100° C.
[2] = Storage stability at different relative humidity (XRPD after 7 days); conditions: ambient temperature; for XRPD analysis results 60% (7 days): polymorphic conversion: 60% relative humidity
Experimental: Samples of Gusacitinib Forms: GS2, GS3, GS4 and Gusacitinib HCl salt Forms GHC11, GHC12, GHC18 were subjected to conditions of different relative humidity at ambient temperature. XRPD analysis was performed on the samples after 7 days.
A sample of Form GHC13 of Gusacitinib HCl salt was subjected to 60% relative humidity for 7 days.

[3] = Grinding experiments (strong grinding and solvent drop grinding, XRPD)
Experimental: Samples of Gusacitinib Forms: GS2, GS3, GS4 and Gusacitinib HCl salt Forms: GHC11, GHC12, GHC13, GHC18 were subjected to strong grinding, and to solvent drop grinding in isopropanol, ethanol and water. Grinding was carried out on the sample alone, or in the presence of the solvent. In these experiments, about 20 mg of the sample is placed in a mortar and ground with a pestle for 2 minutes. The solvent, when used, was added to the crystalline material before grinding, in a volume of 10 microlitres. XRPD analysis performed on the sample after the grinding experiment, confirmed no conversion of the starting material (Table 2): […]

[4] = Thermal stability (heating up to 100° C. for 30 minutes, XRPD)
Experimental: Samples of Gusacitinib Forms: GS2, GS3, GS4 and Gusacitinib HCl salt Forms GHC11, GHC12 and GHC18 were subjected to heating up to 100° C. for 30 minutes. XRPD analysis of the samples confirmed there to be no change in the starting material (Table 3): […]

SMILES: N#CCC1CCN(c2nc(Nc3ccc(N4CCC(O)CC4)cc3)c3c(=O)[nH]ncc3n2)CC1 [Form GHC11]
- stability under all tested stress conditions ([1]; high humidity up to 100% RH for 7 days): stable
- XRPD analysis results 60% (7 days): polymorphic conversion ([2]; listed as GHCl1): No

SMILES: N#CCC1CCN(c2nc(Nc3ccc(N4CCC(O)CC4)cc3)c3c(=O)[nH]ncc3n2)CC1 [Form GHC12]
- XRPD analysis results 60% (7 days): polymorphic conversion ([2]; listed as GHCl2): No

SMILES: N#CCC1CCN(c2nc(Nc3ccc(N4CCC(O)CC4)cc3)c3c(=O)[nH]ncc3n2)CC1 [Form GHC13]
- stability under tested stress conditions ([1]; high humidity up to 60% RH for 7 days): stable
- XRPD analysis results 60% (7 days): polymorphic conversion [2]: no polymorphic conversion

The next lines start with the values.

- XRPD analysis results 60% (7 days): polymorphic conversion ([2]; listed as GHCl8): No
SMILES: N#CCC1CCN(c2nc(Nc3ccc(N4CCC(O)CC4)cc3)c3c(=O)[nH]ncc3n2)CC1 [Form GHC18]

- XRPD analysis results, Solvent-drop grinding (ethanol) ([3]; about 20 mg ground 2 minutes, 10 microlitres ethanol): No polymorphic
- XRPD analysis results, Solvent-drop grinding (isopropyl alcohol) ([3]; about 20 mg ground 2 minutes, 10 microlitres isopropyl alcohol): No polymorphic
- XRPD analysis results, Solvent-drop grinding (water) ([3]; about 20 mg ground 2 minutes, 10 microlitres water): No polymorphic
- XRPD analysis results, Strong grinding ([3]; about 20 mg ground with mortar and pestle for 2 minutes, no solvent): No polymorphic
- Result, Heating 100° C., 30 minutes [4]: Stable
- XRPD analysis results 60% (7 days): polymorphic conversion ([2]; listed as GS2): No
SMILES: N#CCC1CCN(c2nc(Nc3ccc(N4CCC(O)CC4)cc3)c3c(=O)[nH]ncc3n2)CC1 [Form GS2, 2-[1-[4-[4-(4-hydroxypiperidin-1-yl)anilino]-5-oxo-6H-pyrimido[4,5-d]pyridazin-2-yl]piperidin-4-yl]acetonitrile]

- XRPD analysis results 60% (7 days): polymorphic conversion ([2]; listed as GS3): No
SMILES: N#CCC1CCN(c2nc(Nc3ccc(N4CCC(O)CC4)cc3)c3c(=O)[nH]ncc3n2)CC1 [Form GS3, 2-[1-[4-[4-(4-hydroxypiperidin-1-yl)anilino]-5-oxo-6H-pyrimido[4,5-d]pyridazin-2-yl]piperidin-4-yl]acetonitrile]

- stability under all tested stress conditions ([1]; high humidity up to 80% RH for 7 days): stable
- XRPD analysis results 60% (7 days): polymorphic conversion ([2]; listed as GS4): No
- XRPD analysis results 80% (7 days): polymorphic conversion ([2]; 80% relative humidity): No
- XRPD analysis results 100% (7 days): polymorphic conversion ([2]; 100% relative humidity): No
SMILES: N#CCC1CCN(c2nc(Nc3ccc(N4CCC(O)CC4)cc3)c3c(=O)[nH]ncc3n2)CC1 [Form GS4, 2-[1-[4-[4-(4-hydroxypiperidin-1-yl)anilino]-5-oxo-6H-pyrimido[4,5-d]pyridazin-2-yl]piperidin-4-yl]acetonitrile]
